Source: ChEMBL document CHEMBL3352784, “Investigation of Cardiovascular Effects of Tetrahydro-β-carboline sstr3 antagonists” (ACS Med Chem Lett, 2014)

Key:
[1] = molecular target: Voltage-gated inwardly rectifying potassium channel KCNH2 (Homo sapiens, UniProt Q12809)
Description: Inhibition of human ERG by MK-499 displacement binding analysis

[2] = molecular target: T1, Somatostatin receptor type 3 (Homo sapiens, UniProt P32745)
Description: Antagonist activity at human SSTR3 expressed in CHO cells assessed as cAMP level by fluorescence analysis

[3] = molecular target: T2, Somatostatin receptor type 3 (Mus musculus, UniProt P30935); assay: Antagonist activity at mouse SSTR3 expressed in CHO cells assessed as cAMP level by fluorescence analysis; assay type: functional, cell-based
[4] = molecular target: Somatostatin receptor type 3 (Mus musculus) (UniProt P30935); assay: Antagonist activity at mouse SSTR3 expressed in CHO cells assessed as cAMP level by fluorescence analysis relative to control; assay type: functional, cell-based; parameters: concentration or dose not given beside the values; conditions: concentration not given here
[5] = molecular target: T1, Somatostatin receptor type 3; assay: biochemical
Description: Displacement of [125I]SS-14 from human SSTR3 expressed in CHO cells by TopCount analyzer

[6] = molecular target: T2, Somatostatin receptor type 3; assay type: cell-based, CHO
[7] = tested on: Mus musculus; assay: Antidiabetic activity in C57BL/6 mouse assessed as reduction in glucose excursion at 1 mg/kg, ip by oGTT assay relative to MK-4256; assay type: functional; conditions: C57BL/6, ip, route intraperitoneal
[8] = tested on: Mus musculus; assay: Antidiabetic activity in C57BL/6 mouse assessed as reduction in glucose excursion at 3 mg/kg, po by oGTT assay relative to control; assay type: functional; conditions: C57BL/6, read-out: INH
[9] = molecular target: Somatostatin receptor type 4 (Homo sapiens, UniProt P31391); assay type: cell-based, CHO
[10] = in vivo; conditions: dog, iv, 20 mg/kg
[11] = tested on: Mus musculus; assay: Antidiabetic activity in C57BL/6 mouse assessed as reduction in glucose excursion at 10 mg/kg, po by oGTT assay relative to MK-4256; assay type: functional
[12] = Plasma concentration in C57BL/6 mouse at 3 mg/kg, po after 2.5 hrs; assay type: ADME, organism-based; parameters: dose 3 mg/kg, route oral
[13] = tested on: Canis familiaris; assay: Toxicity in anesthetized vagus-intact cardiovascular dog model assessed as QTc interval prolongation at 909 uM plasma concentration; assay type: organism-based, Canis lupus familiaris
[14] = Oral bioavailability in mouse; assay type: ADME, organism-based; conditions: in vivo
[15] = in vivo; conditions: dog, iv, 50 mg/kg
[16] = Clearance in mouse; assay type: ADME, organism-based; conditions: in vivo
[17] = molecular target: Somatostatin receptor type 5 (Homo sapiens, UniProt P35346); assay type: cell-based, CHO
[18] = Half life in mouse; assay type: ADME, organism-based; conditions: in vivo
[19] = Plasma concentration in C57BL/6 mouse at 1 mg/kg, ip after 2.5 hrs; assay type: ADME, organism-based; parameters: dose 1 mg/kg, route intraperitoneal
[20] = tested on: Mus musculus; assay: Antidiabetic activity in C57BL/6 mouse assessed as reduction in glucose excursion at 3 mg/kg, po by oGTT assay relative to MK-4256; assay type: functional
[21] = molecular target: Somatostatin receptor type 2 (Homo sapiens, UniProt P30874); assay type: cell-based, CHO
[22] = molecular target: Somatostatin receptor type 1 (Homo sapiens, UniProt P30872); assay type: cell-based, CHO
[23] = in vivo; conditions: dog, iv, 10 mg/kg
[24] = Plasma concentration in C57BL/6 mouse at 10 mg/kg, po after 2.5 hrs; assay type: ADME, organism-based; parameters: dose 10 mg/kg, route oral

T1 sequence (P32745 whole entry): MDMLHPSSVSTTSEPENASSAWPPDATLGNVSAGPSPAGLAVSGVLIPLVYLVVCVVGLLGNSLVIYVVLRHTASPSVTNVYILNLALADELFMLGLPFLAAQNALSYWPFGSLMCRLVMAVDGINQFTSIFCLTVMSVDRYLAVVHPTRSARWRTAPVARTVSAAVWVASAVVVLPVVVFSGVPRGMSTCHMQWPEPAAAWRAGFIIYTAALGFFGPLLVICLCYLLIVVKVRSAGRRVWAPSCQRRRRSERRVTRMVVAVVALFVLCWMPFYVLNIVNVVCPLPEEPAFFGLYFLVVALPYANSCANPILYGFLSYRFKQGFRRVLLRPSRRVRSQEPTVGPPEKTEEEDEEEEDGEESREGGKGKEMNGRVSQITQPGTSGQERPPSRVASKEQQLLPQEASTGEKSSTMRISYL
Somatostatin receptor type 3 (Mus musculus), sequence (P30935 whole entry): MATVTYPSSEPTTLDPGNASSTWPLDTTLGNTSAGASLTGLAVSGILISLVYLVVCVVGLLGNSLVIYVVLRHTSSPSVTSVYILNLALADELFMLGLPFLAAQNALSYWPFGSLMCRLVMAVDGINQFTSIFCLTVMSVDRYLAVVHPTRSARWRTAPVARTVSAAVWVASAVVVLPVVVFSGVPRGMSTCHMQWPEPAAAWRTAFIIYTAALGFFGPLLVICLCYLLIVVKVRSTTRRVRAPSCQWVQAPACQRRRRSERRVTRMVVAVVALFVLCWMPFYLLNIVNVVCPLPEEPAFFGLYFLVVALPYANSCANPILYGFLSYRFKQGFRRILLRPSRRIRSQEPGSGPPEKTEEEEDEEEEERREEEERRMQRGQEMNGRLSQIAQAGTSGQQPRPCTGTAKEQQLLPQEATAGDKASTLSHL
T2 sequence (P30935 whole entry): as above
Voltage-gated inwardly rectifying potassium channel KCNH2, sequence (Q12809 whole entry): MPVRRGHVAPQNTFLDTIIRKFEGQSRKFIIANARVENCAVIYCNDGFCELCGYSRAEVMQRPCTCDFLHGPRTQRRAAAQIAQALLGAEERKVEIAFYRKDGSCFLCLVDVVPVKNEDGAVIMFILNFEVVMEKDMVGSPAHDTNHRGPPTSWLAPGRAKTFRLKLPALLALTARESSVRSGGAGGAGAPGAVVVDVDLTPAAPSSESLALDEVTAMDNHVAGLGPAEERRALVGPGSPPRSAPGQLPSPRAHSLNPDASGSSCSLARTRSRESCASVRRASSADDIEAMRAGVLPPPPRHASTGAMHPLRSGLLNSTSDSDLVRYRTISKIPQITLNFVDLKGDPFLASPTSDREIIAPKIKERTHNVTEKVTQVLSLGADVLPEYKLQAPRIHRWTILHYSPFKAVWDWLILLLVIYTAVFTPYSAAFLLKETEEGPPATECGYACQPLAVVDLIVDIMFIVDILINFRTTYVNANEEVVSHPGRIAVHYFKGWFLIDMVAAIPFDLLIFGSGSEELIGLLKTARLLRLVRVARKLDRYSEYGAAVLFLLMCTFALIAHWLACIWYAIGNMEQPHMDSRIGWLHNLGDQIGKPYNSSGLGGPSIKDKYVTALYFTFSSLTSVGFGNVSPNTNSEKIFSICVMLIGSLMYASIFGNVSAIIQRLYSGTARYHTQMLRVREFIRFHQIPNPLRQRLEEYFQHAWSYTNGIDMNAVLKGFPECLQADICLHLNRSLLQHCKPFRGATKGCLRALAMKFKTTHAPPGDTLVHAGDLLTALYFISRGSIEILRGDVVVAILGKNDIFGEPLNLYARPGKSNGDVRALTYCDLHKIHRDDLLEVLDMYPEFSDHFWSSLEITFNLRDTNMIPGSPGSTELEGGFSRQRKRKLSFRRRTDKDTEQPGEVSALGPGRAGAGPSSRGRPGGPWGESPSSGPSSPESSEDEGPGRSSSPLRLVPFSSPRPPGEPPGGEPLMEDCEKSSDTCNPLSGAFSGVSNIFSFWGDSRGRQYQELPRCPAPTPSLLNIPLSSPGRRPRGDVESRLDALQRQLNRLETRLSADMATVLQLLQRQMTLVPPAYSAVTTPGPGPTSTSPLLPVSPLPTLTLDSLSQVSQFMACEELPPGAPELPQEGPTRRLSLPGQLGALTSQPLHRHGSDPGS
Somatostatin receptor type 2, sequence (P30874 whole entry): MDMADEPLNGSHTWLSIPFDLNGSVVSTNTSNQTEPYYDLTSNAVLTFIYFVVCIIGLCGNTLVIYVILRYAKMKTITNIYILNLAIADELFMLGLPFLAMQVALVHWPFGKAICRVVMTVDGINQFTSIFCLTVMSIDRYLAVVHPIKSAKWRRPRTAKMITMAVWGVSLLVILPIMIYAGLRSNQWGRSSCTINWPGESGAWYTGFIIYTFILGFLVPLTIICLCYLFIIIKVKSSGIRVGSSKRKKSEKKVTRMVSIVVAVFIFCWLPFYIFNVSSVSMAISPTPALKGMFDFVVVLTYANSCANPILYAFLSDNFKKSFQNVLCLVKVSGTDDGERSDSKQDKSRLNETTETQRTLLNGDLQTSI
Somatostatin receptor type 1, sequence (P30872 whole entry): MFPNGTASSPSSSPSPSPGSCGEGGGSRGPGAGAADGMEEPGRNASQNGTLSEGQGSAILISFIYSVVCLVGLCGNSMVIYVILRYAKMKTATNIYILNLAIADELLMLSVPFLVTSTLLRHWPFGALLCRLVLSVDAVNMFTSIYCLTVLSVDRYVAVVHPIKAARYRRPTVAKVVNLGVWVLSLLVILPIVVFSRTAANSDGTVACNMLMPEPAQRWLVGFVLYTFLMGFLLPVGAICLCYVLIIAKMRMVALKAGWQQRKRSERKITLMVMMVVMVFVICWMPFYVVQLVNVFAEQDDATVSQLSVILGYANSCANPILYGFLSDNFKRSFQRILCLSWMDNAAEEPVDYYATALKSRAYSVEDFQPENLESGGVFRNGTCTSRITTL
Somatostatin receptor type 4, sequence (P31391 whole entry): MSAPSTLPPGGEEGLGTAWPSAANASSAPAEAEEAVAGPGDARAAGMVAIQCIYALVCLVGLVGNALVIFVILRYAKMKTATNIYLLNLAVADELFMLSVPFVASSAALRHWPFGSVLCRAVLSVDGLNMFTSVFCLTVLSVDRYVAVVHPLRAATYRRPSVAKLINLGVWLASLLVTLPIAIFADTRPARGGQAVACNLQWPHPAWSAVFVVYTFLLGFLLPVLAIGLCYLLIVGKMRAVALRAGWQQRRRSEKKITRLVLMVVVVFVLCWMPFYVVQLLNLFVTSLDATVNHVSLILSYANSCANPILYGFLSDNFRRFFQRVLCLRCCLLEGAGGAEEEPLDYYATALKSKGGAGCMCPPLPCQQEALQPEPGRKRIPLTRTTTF
Somatostatin receptor type 5, sequence (P35346 whole entry): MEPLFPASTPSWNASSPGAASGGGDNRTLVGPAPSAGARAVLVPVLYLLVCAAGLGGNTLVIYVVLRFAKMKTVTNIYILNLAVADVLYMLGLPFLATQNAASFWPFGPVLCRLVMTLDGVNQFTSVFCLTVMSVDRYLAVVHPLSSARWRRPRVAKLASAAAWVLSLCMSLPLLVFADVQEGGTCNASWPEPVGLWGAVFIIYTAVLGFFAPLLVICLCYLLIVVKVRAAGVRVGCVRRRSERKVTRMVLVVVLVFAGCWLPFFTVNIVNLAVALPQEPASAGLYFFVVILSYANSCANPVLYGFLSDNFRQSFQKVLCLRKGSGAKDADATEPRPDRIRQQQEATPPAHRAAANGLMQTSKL

| Compound | IC50 [2] [nM] | IC50 [3] [nM] | inhibition [4] [%] | IC50 [5] [nM] | other results |
| --- | --- | --- | --- | --- | --- |
| CCOC(=O)c1cncc([C@@]2(c3cnn(C)c3)N[C@@H](c3nc(-c4ccc(F)cc4)c[nH]3)Cc3c2[nH]c2ccccc32)c1 | 24 | 8.37 | 107 | 3.36 | IC50 [1]: 2520 nM |
| Cn1cc(C2(c3cccc(C(=O)O)n3)N[C@@H](c3nc(-c4ccc(F)cc4)c[nH]3)Cc3c2[nH]c2ccccc32)cn1 (single isomer, unassigned; 2B) [listing 1 of 2 here] | 105 | 111 |  | 74.7 |  |
| Cn1cc([C@]2(c3cncc(C(=O)O)c3)N[C@@H](c3nc(-c4ccc(F)cc4)c[nH]3)Cc3c2[nH]c2ccccc32)cn1 | 6.12 | 2.9 | 80 | 10.8 |  |
| Cn1cc(C2(c3ccc(C(=O)O)cn3)N[C@@H](c3nc(-c4ccc(F)cc4)c[nH]3)Cc3c2[nH]c2ccccc32)cn1 (single isomer, unassigned; 5A) [listing 1 of 2 here] |  | 57.1 |  |  |  |
| Cn1cc([C@@]2(c3cncc(C(=O)O)c3)N[C@@H](c3nc(-c4ccc(F)cc4)c[nH]3)Cc3c2[nH]c2ccccc32)cn1 | 0.52 | 0.16 | 67 | 1.22 |  |
| Cn1cc(C2(c3ccc(C(=O)O)cn3)N[C@@H](c3nc(-c4ccc(F)cc4)c[nH]3)Cc3c2[nH]c2ccccc32)cn1 (single isomer, unassigned; 5A) [listing 2 of 2 here] |  |  | 87 |  |  |
| CCOC(=O)c1ccnc([C@@]2(c3cnn(C)c3)N[C@@H](c3nc(-c4ccc(F)cc4)c[nH]3)Cc3c2[nH]c2ccccc32)c1 | 47.1 | 14.7 | 85 | 4.87 |  |
| CCOC(=O)c1cccc(C2(c3cnn(C)c3)N[C@@H](c3nc(-c4ccc(F)cc4)c[nH]3)Cc3c2[nH]c2ccccc32)n1 (single isomer, unassigned; 6B) [listing 1 of 2 here] | 5.36 | 3.48 |  | 1.52 | IC50 [6]: 0.7 nM |
| CCOC(=O)c1cccc(C2(c3cnn(C)c3)N[C@@H](c3nc(-c4ccc(F)cc4)c[nH]3)Cc3c2[nH]c2ccccc32)n1 (single isomer, unassigned; 6A) [listing 1 of 2 here] | 1.97 | 0.58 |  | 0.83 | IC50 [6]: 0.41 nM |
| Cn1cc(C2(c3cc(C(=O)O)ccn3)N[C@@H](c3nc(-c4ccc(F)cc4)c[nH]3)Cc3c2[nH]c2ccccc32)cn1 (single isomer, unassigned; 3A) [listing 1 of 2 here] |  |  | 81 |  |  |
| Cn1cc(C2(c3cccc(C(=O)O)n3)N[C@@H](c3nc(-c4ccc(F)cc4)c[nH]3)Cc3c2[nH]c2ccccc32)cn1 (single isomer, unassigned; 2A) [listing 1 of 2 here] | 67 | 34 |  | 4.41 | IC50 [6]: 3.93 nM |
| Cn1cc(C2(c3cc(C(=O)O)ccn3)N[C@@H](c3nc(-c4ccc(F)cc4)c[nH]3)Cc3c2[nH]c2ccccc32)cn1 (single isomer, unassigned; 3B) [listing 1 of 2 here] |  |  | 70 |  |  |
| CCOC(=O)c1ccc(C2(c3cnn(C)c3)N[C@@H](c3nc(-c4ccc(F)cc4)c[nH]3)Cc3c2[nH]c2ccccc32)nc1 (single isomer, unassigned; 9B) [listing 1 of 2 here] |  |  | 66 |  |  |
| CCOC(=O)c1ccnc(C2(c3cnn(C)c3)N[C@@H](c3nc(-c4ccc(F)cc4)c[nH]3)Cc3c2[nH]c2ccccc32)c1 (single isomer, unassigned) | 0.78 | 0.36 | 91 | 0.64 | IC50 [6]: 0.41 nM |
| CCOC(=O)c1cncc([C@]2(c3cnn(C)c3)N[C@@H](c3nc(-c4ccc(F)cc4)c[nH]3)Cc3c2[nH]c2ccccc32)c1 | 0.15 | 0.35 | 99 | 0.78 | IC50 [1]: 2260 nM |
| CCOC(=O)c1ccc(C2(c3cnn(C)c3)N[C@@H](c3nc(-c4ccc(F)cc4)c[nH]3)Cc3c2[nH]c2ccccc32)nc1 (single isomer, unassigned; 9A) [listing 1 of 2 here] |  |  | 96 |  |  |
| CCOC(=O)c1cccc(C2(c3cnn(C)c3)N[C@@H](c3nc(-c4ccc(F)cc4)c[nH]3)Cc3c2[nH]c2ccccc32)n1 (single isomer, unassigned; 6B) [listing 2 of 2 here] |  |  | 87 |  |  |
| Cn1cc(C2(c3ccc(C(=O)O)cn3)N[C@@H](c3nc(-c4ccc(F)cc4)c[nH]3)Cc3c2[nH]c2ccccc32)cn1 (single isomer, unassigned; 5B) [listing 1 of 2 here] |  |  | 51 |  |  |
| Cn1cc(C2(c3ccc(C(=O)O)cn3)N[C@@H](c3nc(-c4ccc(F)cc4)c[nH]3)Cc3c2[nH]c2ccccc32)cn1 (single isomer, unassigned; 5B) [listing 2 of 2 here] |  | 1860 |  |  |  |
| Cn1cc(C2(c3cccc(C(=O)O)n3)N[C@@H](c3nc(-c4ccc(F)cc4)c[nH]3)Cc3c2[nH]c2ccccc32)cn1 (single isomer, unassigned; 2B) [listing 2 of 2 here] |  |  | 69 |  |  |
| Cn1cc(C2(c3cc(C(=O)O)ccn3)N[C@@H](c3nc(-c4ccc(F)cc4)c[nH]3)Cc3c2[nH]c2ccccc32)cn1 (single isomer, unassigned; 3B) [listing 2 of 2 here] | 52.3 | 17.1 |  | 72.7 |  |
| CCOC(=O)c1cccc(C2(c3cnn(C)c3)N[C@@H](c3nc(-c4ccc(F)cc4)c[nH]3)Cc3c2[nH]c2ccccc32)n1 (single isomer, unassigned; 6A) [listing 2 of 2 here] |  |  | 80 |  |  |
| CCOC(=O)c1ccc(C2(c3cnn(C)c3)N[C@@H](c3nc(-c4ccc(F)cc4)c[nH]3)Cc3c2[nH]c2ccccc32)nc1 (single isomer, unassigned; 9B) [listing 2 of 2 here] | 31.6 | 14.2 |  | 2.91 |  |
| Cn1cc(C2(c3cc(C(=O)O)ccn3)N[C@@H](c3nc(-c4ccc(F)cc4)c[nH]3)Cc3c2[nH]c2ccccc32)cn1 (single isomer, unassigned; 3A) [listing 2 of 2 here] | 1.71 | 0.73 |  | 2.13 | inhibition in vivo at 1 mg/kg [7]: 64%; inhibition in vivo at 3 mg/kg [8]: 24%; IC50 [9]: > 10000 nM; Cmax at 0.5 h [10]: 199 µM; inhibition in vivo at 10 mg/kg [11]: 35%; concentration at 2.5 h [12]: 0.002 µM; Activity [13]: Non-toxic; bioavailability [14]: 1.5%; Cmax at 0.5 h [15]: 909 µM; clearance [16]: 15.6 mL/min/kg; IC50 [17]: > 10000 nM; half-life [18]: 2.62 h; concentration at 2.5 h [19]: 0.074 µM; inhibition in vivo at 3 mg/kg [20]: 24%; IC50 [21]: > 10000 nM; IC50 [6]: 1.72 nM; IC50 [22]: > 10000 nM; Cmax at 0.5 h [23]: 38 µM; concentration at 2.5 h [24]: 0.003 µM |
| Cn1cc(C2(c3cccc(C(=O)O)n3)N[C@@H](c3nc(-c4ccc(F)cc4)c[nH]3)Cc3c2[nH]c2ccccc32)cn1 (single isomer, unassigned; 2A) [listing 2 of 2 here] |  |  | 101 |  |  |
| CCOC(=O)c1ccc(C2(c3cnn(C)c3)N[C@@H](c3nc(-c4ccc(F)cc4)c[nH]3)Cc3c2[nH]c2ccccc32)nc1 (single isomer, unassigned; 9A) [listing 2 of 2 here] | 5.25 | 1.53 |  | 1.72 |  |
